Laboratory results: ChEMBL document CHEMBL1127581, “Evolution of a novel series of [(N,N-dimethylamino)propyl]- and piperazinylbenzanilides as the first selective 5-HT1D antagonists” (J Med Chem, 1994)

How the values were obtained:
[1] = target: T1, Muscarinic acetylcholine receptor M1 (Homo sapiens, UniProt P11229); assay: Binding affinity against muscarinic M1 receptor
T1 sequence (P11229 whole entry): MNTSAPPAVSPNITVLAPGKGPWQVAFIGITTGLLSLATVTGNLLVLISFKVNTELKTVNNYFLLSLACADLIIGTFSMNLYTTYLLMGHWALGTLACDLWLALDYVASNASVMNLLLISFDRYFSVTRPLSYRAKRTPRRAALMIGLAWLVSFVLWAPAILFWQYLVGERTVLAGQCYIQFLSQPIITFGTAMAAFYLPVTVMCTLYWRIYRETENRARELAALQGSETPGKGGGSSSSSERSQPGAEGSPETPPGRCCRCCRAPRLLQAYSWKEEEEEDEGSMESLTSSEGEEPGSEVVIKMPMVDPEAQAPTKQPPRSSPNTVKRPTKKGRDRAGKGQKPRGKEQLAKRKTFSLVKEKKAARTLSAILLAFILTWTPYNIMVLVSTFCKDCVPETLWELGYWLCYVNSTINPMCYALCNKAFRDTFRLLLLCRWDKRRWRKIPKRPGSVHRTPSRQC

D(3) dopamine receptor = D(3) dopamine receptor (Homo sapiens, UniProt P35462); assay: Binding affinity against dopamine D3 receptor
Sequence of D(3) dopamine receptor (P35462 whole entry): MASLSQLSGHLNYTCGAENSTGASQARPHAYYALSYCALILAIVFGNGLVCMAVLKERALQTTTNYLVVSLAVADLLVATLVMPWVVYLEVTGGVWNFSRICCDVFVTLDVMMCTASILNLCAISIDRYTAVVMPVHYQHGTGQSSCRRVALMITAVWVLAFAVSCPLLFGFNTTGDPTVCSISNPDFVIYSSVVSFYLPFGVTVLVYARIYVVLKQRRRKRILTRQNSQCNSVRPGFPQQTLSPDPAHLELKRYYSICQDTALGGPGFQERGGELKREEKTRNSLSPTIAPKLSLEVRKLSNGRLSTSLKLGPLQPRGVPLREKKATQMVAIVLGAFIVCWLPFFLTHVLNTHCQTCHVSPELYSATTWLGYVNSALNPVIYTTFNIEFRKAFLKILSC

[2] = target: 5-hydroxytryptamine receptor 1D (Cavia porcellus, UniProt Q60484); assay: In vitro binding affinity towards 5-hydroxytryptamine 1D receptor in guinea-pig striatum in presence of BMY-7378 and mesulergine; assay type: tissue-based
Sequence of 5-hydroxytryptamine receptor 1D (Q60484 whole entry): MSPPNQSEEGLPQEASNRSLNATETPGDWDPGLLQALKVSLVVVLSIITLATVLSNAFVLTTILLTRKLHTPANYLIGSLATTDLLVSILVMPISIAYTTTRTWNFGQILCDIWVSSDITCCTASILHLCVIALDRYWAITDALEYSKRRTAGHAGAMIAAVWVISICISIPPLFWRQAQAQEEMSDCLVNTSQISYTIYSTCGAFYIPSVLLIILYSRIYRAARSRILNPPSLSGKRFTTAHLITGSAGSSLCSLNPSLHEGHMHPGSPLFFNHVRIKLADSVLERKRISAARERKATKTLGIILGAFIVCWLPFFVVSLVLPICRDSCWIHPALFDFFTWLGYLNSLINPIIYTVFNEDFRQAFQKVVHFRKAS

[3] = target: T2, Muscarinic acetylcholine receptor M2 (Homo sapiens, UniProt P08172); assay: Binding affinity against muscarinic M2 receptor
T2 sequence (P08172 whole entry): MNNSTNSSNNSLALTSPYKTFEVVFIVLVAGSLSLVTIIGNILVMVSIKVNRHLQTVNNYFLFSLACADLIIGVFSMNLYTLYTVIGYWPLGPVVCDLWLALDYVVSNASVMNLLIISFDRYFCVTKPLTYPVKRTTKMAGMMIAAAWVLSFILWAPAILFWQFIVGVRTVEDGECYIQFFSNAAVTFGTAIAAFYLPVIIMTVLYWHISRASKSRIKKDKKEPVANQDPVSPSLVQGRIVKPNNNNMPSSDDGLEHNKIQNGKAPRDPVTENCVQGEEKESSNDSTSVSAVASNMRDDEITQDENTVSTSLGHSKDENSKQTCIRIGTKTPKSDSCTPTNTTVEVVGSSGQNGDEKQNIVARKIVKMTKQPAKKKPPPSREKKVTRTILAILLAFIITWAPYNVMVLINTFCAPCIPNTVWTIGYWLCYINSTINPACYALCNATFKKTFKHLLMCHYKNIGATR

[4] = target: T3, Adrenergic receptor alpha-1 (Homo sapiens, UniProt P35348+P25100+P35368); assay: Binding affinity against alpha-1 adrenoceptor; assay type: protein assay
T3 sequence (P35348 whole entry): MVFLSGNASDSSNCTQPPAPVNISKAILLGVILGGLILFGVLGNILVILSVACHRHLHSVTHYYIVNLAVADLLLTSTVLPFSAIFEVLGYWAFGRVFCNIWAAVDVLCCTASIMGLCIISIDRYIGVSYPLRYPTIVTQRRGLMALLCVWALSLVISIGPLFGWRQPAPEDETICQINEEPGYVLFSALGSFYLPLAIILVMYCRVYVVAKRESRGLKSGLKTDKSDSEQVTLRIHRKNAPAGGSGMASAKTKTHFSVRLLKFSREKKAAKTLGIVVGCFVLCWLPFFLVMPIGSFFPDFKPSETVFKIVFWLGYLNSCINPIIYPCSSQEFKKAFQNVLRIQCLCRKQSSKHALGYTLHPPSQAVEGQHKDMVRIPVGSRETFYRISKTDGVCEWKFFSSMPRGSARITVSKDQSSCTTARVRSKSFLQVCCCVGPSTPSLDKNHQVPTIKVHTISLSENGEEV
T3 sequence (P25100 whole entry): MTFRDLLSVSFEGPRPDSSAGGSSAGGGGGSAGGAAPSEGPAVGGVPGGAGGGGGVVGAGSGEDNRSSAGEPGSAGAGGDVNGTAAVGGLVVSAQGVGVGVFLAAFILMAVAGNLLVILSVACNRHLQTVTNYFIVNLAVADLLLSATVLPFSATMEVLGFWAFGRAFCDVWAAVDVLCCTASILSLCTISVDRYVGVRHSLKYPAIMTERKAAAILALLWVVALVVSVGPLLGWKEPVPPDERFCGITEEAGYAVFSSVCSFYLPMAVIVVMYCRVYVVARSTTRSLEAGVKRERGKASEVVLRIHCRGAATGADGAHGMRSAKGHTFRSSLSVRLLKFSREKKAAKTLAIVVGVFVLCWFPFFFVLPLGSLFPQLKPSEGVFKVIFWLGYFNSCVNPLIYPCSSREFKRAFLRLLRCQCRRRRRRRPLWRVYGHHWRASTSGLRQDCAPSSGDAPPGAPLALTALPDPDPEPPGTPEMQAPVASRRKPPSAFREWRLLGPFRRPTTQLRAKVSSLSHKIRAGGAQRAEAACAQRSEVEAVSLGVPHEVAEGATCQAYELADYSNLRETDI
T3 sequence (P35368 whole entry): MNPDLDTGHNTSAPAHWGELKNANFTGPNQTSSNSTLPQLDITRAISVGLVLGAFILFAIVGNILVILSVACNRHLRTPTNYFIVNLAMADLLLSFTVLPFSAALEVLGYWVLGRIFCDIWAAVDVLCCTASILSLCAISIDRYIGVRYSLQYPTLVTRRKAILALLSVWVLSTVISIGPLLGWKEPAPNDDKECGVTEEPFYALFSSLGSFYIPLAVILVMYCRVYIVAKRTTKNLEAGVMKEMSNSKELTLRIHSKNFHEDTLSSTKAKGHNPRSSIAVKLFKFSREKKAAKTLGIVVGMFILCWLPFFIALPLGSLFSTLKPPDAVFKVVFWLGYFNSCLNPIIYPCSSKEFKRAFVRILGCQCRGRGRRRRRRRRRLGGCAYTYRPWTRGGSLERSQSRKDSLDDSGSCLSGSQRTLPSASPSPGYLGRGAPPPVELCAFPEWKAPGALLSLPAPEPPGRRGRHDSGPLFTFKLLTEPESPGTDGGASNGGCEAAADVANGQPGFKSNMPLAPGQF

[5] = target: 5-hydroxytryptamine receptor 4 (Homo sapiens, UniProt Q13639); assay: Binding affinity against 5-hydroxytryptamine 4 receptor
Sequence of 5-hydroxytryptamine receptor 4 (Q13639 whole entry): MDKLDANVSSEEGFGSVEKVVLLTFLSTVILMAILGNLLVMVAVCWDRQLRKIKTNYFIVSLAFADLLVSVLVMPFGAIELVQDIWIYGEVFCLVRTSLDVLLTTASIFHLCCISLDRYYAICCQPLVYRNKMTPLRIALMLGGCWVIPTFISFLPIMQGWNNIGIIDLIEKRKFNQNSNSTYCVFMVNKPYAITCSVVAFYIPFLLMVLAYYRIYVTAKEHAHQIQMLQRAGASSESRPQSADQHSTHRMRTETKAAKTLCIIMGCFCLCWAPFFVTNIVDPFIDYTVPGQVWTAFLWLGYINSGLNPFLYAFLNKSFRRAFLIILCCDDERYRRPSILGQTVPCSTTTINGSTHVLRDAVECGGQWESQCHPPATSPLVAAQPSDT

Ki [1]: > 1 µM
Ki (D(3) dopamine receptor): > 10 µM
Ki [2]: 0.00316 µM
Ki [3]: > 1 µM
Log Ki [4]: > -6
Ki [5]: > 10 µM
SMILES: COc1ccc(NC(=O)c2ccc(-c3ccc(-c4noc(C)n4)cc3C)cc2)cc1N1CCN(C)CC1 [GR-127935]
